We go through three molecules from US4628043A, “Hypothalamic GRF agonists” (The Salk Institute for Biological Studies, priority 1985, dated 1986).

Experiment [1] concerns cells of rat pituitary glands. Put plainly: in vitro GH release assay in cultured rat pituitary cells, hpGRF(1-40)-OH as standard. It counts as cell-based. The note with it: for Comparison %: GH release at equimolar concentrations relative to hpGRF(1-40)-OH standard (100%), incubation 3 to 4 hours, ir GH by radioimmunoassay. Here is the method: To determine the effectiveness of the various synthetic peptides to promote the release of growth hormone, in vitro assays are carried out using synthetic hpGRF(1-40)--OH as a standard in side-by-side comparison with equimolar concentrations of the various other analogs and fragments synthesized. Cultures are used which include cells of rat pituitary glands removed some three to five days previously. Cultures which are considered optimal for the secretion of growth hormone are used for the comparative testing, in the general manner described in Vale et al. Endocrinology, 91, 562-572 (1972) and as more particularly described in Vale et al. Endocrinology, (1983), in press. Incubation with the substance to be tested is carried out for 3 to 4 hours, and aliquots of the culture medium are removed and processed to measure their contents in immunoreactive GH(ir GH) by a well-characterized radioimmunoassay.

The test system of experiment [2] is freely running normal male rats. Put plainly: in vivo GH secretion after injection through an indwelling catheter, FLA-63 pretreated rats. The note with it: blood GH by radioimmunoassay prior to and 5 and 20 minutes after injection; result in words. Also on record: species or system rat. As for the experimental part: In addition to the in vitro tests for secretion of growth hormone, in vivo experiments are also run by injecting the synthetic peptide through an indwelling catheter into freely running normal male rats. Animals are pretreated with FLA-63, a dopamine hydroxylase inhibitor that suppresses spontaneous GH secretion without affecting the response to exogenous GRF. Blood samples are taken through the same catheter immediately prior to and 5 and 20 minutes after injections; GH levels in blood are measured by radioimmunoassay. […] Dosages between about 40 nanograms and about 25 micrograms per Kg. of body weight are considered to be effective in causing secretion.

Square brackets hold non-standard residues; d marks the D form. Ends that are not written are not given here. Peptide text beside a SMILES is read from it. Nle = CCCC[C@H](N)C(=O)O

Regarding `CCCC[C@H](NC(=O)[C@@H](NC(=O)[C@H](CC(=O)O)NC(=O)[C@H](CCC(N)=O)NC(=O)[C@H](CC(C)C)NC(=O)[C@H](CC(C)C)NC(=O)[C@H](CCCCN)NC(=O)[C@H](CCCNC(=N)N)NC(=O)[C@H](C)NC(=O)[C@H](CO)NC(=O)[C@H](CC(C)C)NC(=O)[C@H](CCC(N)=O)NC(=O)CNC(=O)[C@H](CC(C)C)NC(=O)[C@@H](NC(=O)[C@H](CCCCN)NC(=O)[C@H](CCCNC(=N)N)NC(=O)[C@H](Cc1ccc(O)cc1)NC(=O)[C@H](CO)NC(=O)[C@H](CC(N)=O)NC(=O)[C@@H](NC(=O)[C@H](Cc1ccccc1)NC(=O)[C@@H](NC(=O)[C@H](C)NC(=O)[C@H](CC(=O)O)NC(=O)[C@H](C)NC(=O)[C@@H](N)Cc1ccc(O)cc1)[C@@H](C)CC)[C@@H](C)O)C(C)C)[C@@H](C)CC)C(=O)N[C@@H](CC(N)=O)C(=O)N[C@@H](CCCNC(=N)N)C(N)=O` [[Nle^27,Asn^28]--hGRF(1-29)-NH2, H--Tyr--Ala--Asp--Ala--Ile--Phe--Thr--Asn--Ser--Tyr--Arg--Lys--Val--Leu--Gly--Gln--Leu--Ser--Ala--Arg--Lys--Leu--Leu--Gln--Asp--Ile--Nle--Asn--Arg--NH2] (H-YADAIFTNSYRKVLGQLSARKLLQDI[Nle]NR-NH2), the Comparison % in experiment [1] is 520%.
As to `CC[C@H](C)[C@H](NC(=O)[C@H](C)NC(=O)[C@H](CC(=O)O)NC(=O)[C@H](C)NC(=O)[C@@H](N)Cc1c[nH]cn1)C(=O)N[C@@H](Cc1ccccc1)C(=O)N[C@H](C(=O)N[C@@H](CO)C(=O)N[C@@H](CO)C(=O)N[C@@H](Cc1ccc(O)cc1)C(=O)N[C@@H](CCCNC(=N)N)C(=O)N[C@@H](CCCNC(=N)N)C(=O)N[C@H](C(=O)N[C@@H](CC(C)C)C(=O)NCC(=O)N[C@@H](CCC(N)=O)C(=O)N[C@@H](CC(C)C)C(=O)N[C@@H](Cc1ccc(O)cc1)C(=O)N[C@@H](C)C(=O)N[C@@H](CCCNC(=N)N)C(=O)N[C@@H](CCCCN)C(=O)N[C@@H](CC(C)C)C(=O)N[C@@H](CC(C)C)C(=O)N[C@@H](Cc1c[nH]cn1)C(=O)N[C@@H](CCC(=O)O)C(=O)N[C@H](C(=O)N[C@@H](CCSC)C(=O)N[C@@H](CC(N)=O)C(=O)N[C@@H](CCCNC(=N)N)C(=O)N[C@@H](CCC(N)=O)C(=O)N[C@@H](CCC(N)=O)C(=O)NCC(=O)N[C@@H](CCC(=O)O)C(=O)N[C@@H](CCCNC(=N)N)C(=O)N[C@@H](CC(N)=O)C(=O)N[C@@H](CCC(N)=O)C(=O)N[C@@H](CCC(=O)O)C(=O)N[C@@H](CCC(N)=O)C(=O)N[C@@H](CCCNC(=N)N)C(=O)N[C@@H](CO)C(=O)N[C@@H](CCCNC(=N)N)C(=O)N[C@@H](Cc1ccccc1)C(=O)N[C@@H](CC(N)=O)C(=O)O)[C@@H](C)CC)[C@@H](C)CC)[C@@H](C)O` [rGRF(1-43)--OH, H--His--Ala--Asp--Ala--Ile--Phe--Thr--Ser--Ser--Tyr--Arg--Arg--Ile--Leu--Gly--Gln--Leu--Tyr--Ala--Arg--Lys--Leu--Leu--His--Glu--Ile--Met--Asn--Arg--Gln--Gln--Gly--Glu--Arg--Asn--Gln--Glu--Gln--Arg--Ser--Arg--Phe--Asn--OH], the maximum effective concentration in experiment [1] (in vitro GH secretion, cultured rat pituitary cells) amounted to 1 nM. Besides, the “release of GH from cultured pituitary cells” value in experiment [1] (result in words) is reported as “releases GH from cultured pituitary cells”. The “stimulation of the secretion of pituitary GH in vivo” value in experiment [2] is reported as “powerful stimulators of the secretion of pituitary GH”.
In experiment [1], “npGRF(1-40)-OH: synthetic hpGRF(1-40)--OH used as a standard in the in vitro assays (YADAIFTNSYRKVLGQLSARKLLQDIMSRQQGESNQERGA-OH; UniProt P01286 32-71, looked up, fragment) [reference compound]” had a Comparison % of 100%.
